ChEMBL document CHEMBL3400145, “Design and synthesis of piperazine derivatives as a novel class of γ-secretase modulators that selectively lower Aβ₄₂ production” (Bioorg Med Chem, 2015)
The source made the active and inactive calls. No cut-off for these calls is given here.

Legend:
[1] = tested on: neuronal; assay: Inhibition of amyloid beta40 production in rat neuronal cells assessed as maximal inhibition at 3 uM after 3 days by ELISA; format: cell-based
[2] = tested on: neuronal; assay: Inhibition of amyloid beta40 production in rat neuronal cells assessed as inflection point after 3 days by ELISA; format: cell-based
[3] = Metabolic stability in rat hepatic microsomes by LC/MS/MS analysis; format: ADME, Liver, Microsome; settings: read-out: CLH
[4] = tested on: Brain; assay: Reduction in soluble amyloid beta42 in C57BL/6J mouse brain at 100 mg/kg, po after 3 hrs by ELISA relative to vehicle treated control; format: functional
[5] = tested on: Plasma; assay: Reduction in soluble amyloid beta42 in C57BL/6J mouse plasma at 100 mg/kg, po after 3 hrs by ELISA relative to vehicle treated control; format: functional
[6] = molecular target: Amyloid-beta precursor protein (Homo sapiens) (UniProt P05067); assay: Inhibition of amyloid beta42 production in human IMR32 cell by ELISA; format: functional, cell-based; settings: IMR-32
[7] = Cmax in C57BL/6J mouse at 1 mg/kg, po cassette dosing; format: ADME, organism-based; set-up: dose 1 mg/kg, route oral; settings: in vivo
[8] = molecular target: Amyloid-beta precursor protein (Homo sapiens) (UniProt P05067); assay: Inhibition of amyloid beta40 production in human IMR32 cell by ELISA; format: functional, cell-based; settings: IMR-32
[9] = Volume of distribution at steady state in C57BL/6J mouse at 0.1 mg/kg, iv cassette dosing; format: ADME, organism-based; set-up: dose 0.1 mg/kg, route intravenous; settings: in vivo, read-out: Vdss
[10] = tested on: Mus musculus; assay: AUC in C57BL/6J mouse at 1 mg/kg, po cassette dosing; format: ADME, organism-based, Plasma; set-up: dose 1 mg/kg, route oral; settings: in vivo
[11] = Mean residence time in C57BL/6J mouse at 1 mg/kg, po cassette dosing; format: ADME, organism-based; set-up: dose 1 mg/kg, route oral; settings: in vivo
[12] = tested on: Plasma; assay: Reduction in soluble amyloid beta40 in C57BL/6J mouse plasma at 100 mg/kg, po after 3 hrs by ELISA relative to vehicle treated control; format: functional
[13] = tested on: Mus musculus; assay: Oral bioavailability in C57BL/6J mouse at 1 mg/kg cassette dosing; format: ADME, organism-based; settings: in vivo
[14] = tested on: Brain; assay: Reduction in soluble amyloid beta40 in C57BL/6J mouse brain at 100 mg/kg, po after 3 hrs by ELISA relative to vehicle treated control; format: functional
[15] = tested on: IMR-32; assay: Inhibition of total amyloid beta production in human IMR32 cell by ELISA; format: functional, cell-based

Chain of Amyloid-beta precursor protein (Homo sapiens) (P05067 whole entry): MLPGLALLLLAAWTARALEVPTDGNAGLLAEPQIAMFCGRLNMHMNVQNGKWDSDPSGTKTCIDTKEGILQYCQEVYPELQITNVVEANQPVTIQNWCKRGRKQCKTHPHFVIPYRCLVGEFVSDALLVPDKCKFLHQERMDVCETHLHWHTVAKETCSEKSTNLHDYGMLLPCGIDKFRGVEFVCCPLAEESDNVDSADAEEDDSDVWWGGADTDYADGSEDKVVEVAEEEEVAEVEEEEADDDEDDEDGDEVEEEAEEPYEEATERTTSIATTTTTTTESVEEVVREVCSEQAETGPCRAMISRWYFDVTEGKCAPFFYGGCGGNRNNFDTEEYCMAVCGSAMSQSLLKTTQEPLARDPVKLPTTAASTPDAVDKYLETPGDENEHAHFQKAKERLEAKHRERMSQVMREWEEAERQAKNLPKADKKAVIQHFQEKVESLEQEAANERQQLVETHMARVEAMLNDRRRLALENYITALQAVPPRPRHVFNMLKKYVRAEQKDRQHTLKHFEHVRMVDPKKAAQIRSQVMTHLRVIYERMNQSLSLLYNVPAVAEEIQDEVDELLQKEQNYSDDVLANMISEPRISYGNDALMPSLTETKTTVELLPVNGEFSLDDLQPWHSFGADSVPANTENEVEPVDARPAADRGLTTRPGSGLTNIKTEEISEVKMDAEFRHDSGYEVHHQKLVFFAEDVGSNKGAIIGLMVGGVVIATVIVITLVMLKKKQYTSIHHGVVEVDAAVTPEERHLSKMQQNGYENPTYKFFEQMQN

SMILES: COc1cc(C2CCN(C(=O)N[C@@H](C)c3cccc4ccccc34)CC2)ccc1-c1cnc(C)o1
- inhibition [1]: 61%
- Activity [2]: 260 nM
- microsomal CLint [3]: 170 µL/min/mg

SMILES: COc1cc(N2CCN(C(=O)Cn3nnc4ccccc43)CC2)ccc1-c1cnc(C)o1
- inhibition [1]: 47%
- Activity [2]: 210 nM
- microsomal CLint [3]: 27 µL/min/mg

SMILES: COc1cc(N2CCN(C(=O)N[C@@H](C)c3cccc4ccccc34)C[C@H]2C)ccc1-c1cnc(C)o1
- inhibition [1]: 65%
- Activity [2]: 56 nM
- microsomal CLint [3]: 150 µL/min/mg

SMILES: COc1cc(N2CCN(C(=O)CN3Cc4ccccc4C3)CC2)ccc1-c1cnc(C)o1
- inhibition [1]: 48%
- Activity [2]: 620 nM
- microsomal CLint [3]: 42 µL/min/mg

SMILES: COc1cc(N2CCCN(C(=O)N[C@@H](C)c3cccc4ccccc34)CC2)ccc1-c1cnc(C)o1
- inhibition [1]: 57%
- Activity [2]: 38 nM
- microsomal CLint [3]: 240 µL/min/mg

SMILES: COc1cc(N2CCN(C(=O)Cn3cnc4c(C(F)(F)F)cccc43)CC2)ccc1-c1cnc(C)o1
- inhibition [1]: 53%
- Activity [2]: 110 nM
- microsomal CLint [3]: 12 µL/min/mg

SMILES: COc1cc(N2CCN(C(=O)Cn3cnc4cc(C(F)(F)F)ccc43)CC2)ccc1-c1cnc(C)o1
- inhibition [1]: 61%
- Activity [2]: 50 nM
- microsomal CLint [3]: 66 µL/min/mg

SMILES: COc1cc(N2CCN(C(=O)Cn3cnc4ccc(C(F)(F)F)cc43)CC2)ccc1-c1cnc(C)o1
- inhibition [1]: 50%
- Activity [2]: 65 nM
- microsomal CLint [3]: 23 µL/min/mg

SMILES: COc1cc(N2CCN(C(=O)NCc3cccc4ccccc34)CC2)ccc1-c1cnc(C)o1
- inhibition [1]: 59%
- Activity [2]: 50 nM
- microsomal CLint [3]: 160 µL/min/mg

SMILES: COc1cc(N2CCN(C(=O)Cn3ccc4ccccc43)CC2)ccc1-c1cnc(C)o1
- inhibition [1]: 50%
- Activity [2]: 180 nM
- microsomal CLint [3]: 140 µL/min/mg

SMILES: COc1cc(N2CCN(C(=O)Cn3cnc4cccc(C(F)(F)F)c43)CC2)ccc1-c1cnc(C)o1
- inhibition [1]: 46%
- Activity [2]: 420 nM
- microsomal CLint [3]: 7 µL/min/mg

SMILES: COc1cc(N2CCN(C(=O)CN3CCc4ccccc43)CC2)ccc1-c1cnc(C)o1
- inhibition [1]: 52%
- Activity [2]: 290 nM
- microsomal CLint [3]: 160 µL/min/mg

SMILES: COc1cc(N2CCN(C(=O)N[C@@H](C)c3cccc4ccccc34)C[C@@H]2C)ccc1-c1cnc(C)o1
- inhibition [1]: 64%
- Activity [2]: 21 nM
- microsomal CLint [3]: 150 µL/min/mg

SMILES: COc1cc(N2CCN(C(=O)N[C@@H](C)c3cccc4ccccc34)CC2)ccc1-n1cnc(C)c1
- inhibition [1]: 57%
- inhibition in vivo at 100 mg/kg [4]: 4%
- Activity [2]: 56 nM
- microsomal CLint [3]: 150 µL/min/mg
- inhibition in vivo at 100 mg/kg [5]: 16%

SMILES: COc1cc(N2CCN(C(=O)N[C@@H](C)c3cccc4ccccc34)CC2)ccc1-n1cc(C)nn1
- inhibition [1]: 47%
- Activity [2]: 450 nM
- microsomal CLint [3]: 230 µL/min/mg

SMILES: COc1cc(N2CCN(C(=O)N[C@@H](C)c3cccc4ccccc34)CC2)ccc1-n1cnc(C)n1
- inhibition [1]: 68%
- Activity [2]: 170 nM
- microsomal CLint [3]: 110 µL/min/mg

SMILES: COc1cc(N2CCN(C(=O)Cn3cnc4ccc(C(F)(F)F)cc43)C[C@@H]2C)ccc1-c1cnc(C)o1
- inhibition [1]: 46%
- Activity [2]: 30 nM
- microsomal CLint [3]: 50 µL/min/mg

SMILES: COc1cc(N2CCN(C(=O)Cn3cnc4cc(C(F)(F)F)ccc43)C[C@@H]2C)ccc1-c1cnc(C)o1
- inhibition [1]: 60%
- inhibition [6]: Dose-dependent effect
- Cmax [7]: 0.773 µg/mL
- inhibition [8]: inactive
- Vd [9]: 0.36 L/kg
- inhibition in vivo at 100 mg/kg [4]: 41%
- AUC [10]: 3.93 µg·h/mL
- MRT [11]: 3.26 h
- % of control at 100 mg/kg [12]: 106%
- Activity [2]: 21 nM
- F [13]: 46%
- % of control at 100 mg/kg [14]: 105%
- microsomal CLint [3]: 67 µL/min/mg
- inhibition [15]: inactive
- inhibition in vivo at 100 mg/kg [5]: 36%

SMILES: COc1cc(N2CCN(C(=O)N[C@@H](C)c3cccc4ccccc34)CC2)ccc1-c1cnn(C)c1
- inhibition [1]: 63%
- Activity [2]: 180 nM
- microsomal CLint [3]: 150 µL/min/mg

SMILES: COc1cc(N2CCN(C(=O)Cn3ncc4ccccc43)CC2)ccc1-c1cnc(C)o1
- inhibition [1]: 49%
- Activity [2]: 170 nM
- microsomal CLint [3]: 77 µL/min/mg

SMILES: COc1cc(N2CCN(C(=O)N[C@@H](C)c3cccc4ccccc34)CC2)ccc1-c1cnc(C)o1
- inhibition [1]: 67%
- Activity [2]: 34 nM
- microsomal CLint [3]: 130 µL/min/mg

SMILES: COc1cc(N2CCN(C(=O)Cn3cnc4ccccc43)CC2)ccc1-c1cnc(C)o1
- inhibition [1]: 71%
- Activity [2]: 93 nM
- microsomal CLint [3]: 22 µL/min/mg
